Biological target: Albumin (Bos taurus, UniProt P02769)
Assay: Binding affinity to bovine serum albumin by fluorescence anisotropy based method
Format: ADME

Chain of Albumin (P02769 whole entry): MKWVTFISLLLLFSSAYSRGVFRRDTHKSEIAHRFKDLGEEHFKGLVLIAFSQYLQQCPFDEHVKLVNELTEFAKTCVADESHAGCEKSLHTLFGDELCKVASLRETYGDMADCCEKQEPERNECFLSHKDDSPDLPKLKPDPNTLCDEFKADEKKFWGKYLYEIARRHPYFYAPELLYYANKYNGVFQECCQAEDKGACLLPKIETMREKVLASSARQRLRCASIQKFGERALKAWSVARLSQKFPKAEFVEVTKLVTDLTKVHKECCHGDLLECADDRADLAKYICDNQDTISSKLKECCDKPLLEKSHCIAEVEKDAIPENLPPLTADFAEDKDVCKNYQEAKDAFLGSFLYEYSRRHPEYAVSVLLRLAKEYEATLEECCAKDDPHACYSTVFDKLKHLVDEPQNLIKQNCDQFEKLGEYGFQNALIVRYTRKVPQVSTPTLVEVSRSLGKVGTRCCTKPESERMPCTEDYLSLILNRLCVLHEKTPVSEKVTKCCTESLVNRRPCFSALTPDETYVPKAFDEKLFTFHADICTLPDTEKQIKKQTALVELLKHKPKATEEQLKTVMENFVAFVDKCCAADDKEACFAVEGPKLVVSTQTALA

Compound | Kd
CCN1c2cc(S(=O)(=O)O)ccc2\C(=C/C=C/C=C/C2=[N+](CC)c3ccc(S(=O)(=O)[O-])cc3C2(C)C)C1(C)CCCC(=O)NCCCC[C@H](NC(=O)[C@H](CC(=O)O)NC(=O)[C@H](CC(=O)O)NC(=O)[C@H](CC(=O)O)NC(=O)[C@H](CC(=O)O)NC(=O)[C@H](CC(=O)O)NC(=O)[C@H](CC(=O)O)NC(=O)CCCCCCCn1cnc2c(Br)c(Br)c(Br)c(Br)c21)C(=O)O (some centres not stated) | 1.7 µM
CCN1c2cc(S(=O)(=O)O)ccc2\C(=C/C=C/C=C/C2=[N+](CC)c3ccc(S(=O)(=O)[O-])cc3C2(C)C)C1(C)CCCC(=O)NCCCC[C@H](NC(=O)CCCCCCCCOc1nc2cc(C(=O)O)ccc2c2cnccc12)C(=O)N[C@@H](CC(=O)O)C(=O)N[C@@H](CC(=O)O)C(=O)N[C@@H](CC(=O)O)C(=O)N[C@@H](CC(=O)O)C(=O)O (some centres not stated) | > 50 µM
